Consider two molecules from US9556147B2 (Hoffmann-La Roche Inc., priority 2013, dated 2017).

Structures are written as SMILES.

For the assay, the system named is B cell receptor-mediated activation of B cells in human whole blood (CD69 expression). In words: cells. The conditions noted are these: 20 h, read-out: HWB IC50. The procedure:
After the incubation the plates were read on a BMG Pherastar Fluorescent plate reader (or equivalent) and used to measure the emission energy from the europium donor fluorophore (620 nm emission) and the FRET (665 nm emission). The negative control well values were averaged to obtain the mean minimum. The positive “no inhibitor” control wells were averaged to obtain the mean maximum. […] The mean IC50 and standard deviation will be derived from duplicate curves (singlet inhibition curves from two independent dilutions) using Microsoft Excel. Inhibition of B Cell Activation in Whole Blood Measured by CD69 Expression
Human whole blood (HWB) is obtained from healthy volunteers, with the following restrictions: 24 hr drug-free, non-smokers. Blood is collected by venipuncture into Vacutainer tubes anticoagulated with sodium heparin. Test compounds are diluted to ten times the desired starting drug concentration in PBS (20×), followed by three-fold serial dilutions in 10% DMSO in PBS to produce a nine point dose-response curve. […] HWB (100 μl) is added to each well, and after mixing the plates are incubated at 37 C, 5% CO2, 100% humidity for 30 minutes. […]
Using appropriate excitation and emission wavelengths for the fluorophores used, data are acquired and percent positive cell values are obtained using Cell Quest Software. Results are initially analyzed by FACS analysis software (Flow Jo).

`CN1CCC[C@H]1c1ccc(Nc2cc3c(n(C)c2=O)CC(O)Cc2c-3cccc2-n2ncc3cc(C(C)(C)C)cc(F)c3c2=O)nc1` (some centres unmarked) [Compound 2]: the IC50 worked out at 49 nM.
For `Cn1c2c(cc(Nc3ccc(C(=O)N4CCOCC4)cn3)c1=O)-c1cccc(-n3ncc4cccc(F)c4c3=O)c1C[C@H](O)C2` [Compound 6] the value was 4380 nM.

As a reminder, the IC50 is the concentration at which inhibition is half-maximal.
